From patent US5266570A, “Piperidine derivatives, compositions and use” (Imperial Chemical Industries PLC, priority 1991, dated 1993)
pIC50: −log10 of the molar value.

How the values were obtained:
[1] = tested on: apomorphine-induced climbing and apomorphine-induced disruption of swimming; assay: TEST B: antagonism of apomorphine-induced climbing and apomorphine-induced disruption of swimming; assay type: in vivo, mouse (female Swiss-Webster mice); settings: Mus musculus; mice, oral, 30 min before apomorphine HCl 1.25 mg/kg sc; typical values; read-out: minimum effective dose (decrease in climbing score accompanied by increase in swimming score)
Protocol: (§1) The compounds of Formula I are antagonists of dopamine D-2 receptors, and as such are predicted to be useful as antipsychotic drugs. D-2 antagonism can be shown by standard tests such as antagonism of [^3 H]-spiperone binding (Test A), and/or antagonism of apomorphine-induced climbing and apomorphine-induced disruption of swimming (Test B).
Female Swiss-Webster mice weighing approximately 20 g were deprived of food for approximately 24 h and then dosed orally with various doses of either the vehicle or test agent over a range of doses (N=20 mice per treatment group). Thirty minutes later they were dosed with apomorphine HCl at 1.25 mg/kg, sc, and placed into climbing cages. The climbing cages were 9 cm wide, 15 cm deep and 30 cm high. One wall had 27 horizontal rungs spaced 1 cm apart. Thirteen minutes after apomorphine each mouse was observed continuously for 1 min and the highest and lowest rung reached by its front paws was recorded. […] (The highest and lowest scores were 27 and 0, respectively.) Immediately after the 1-min climbing observation period each mouse was placed into a circular swimming tank for 2 min and the number of swims was counted. […] A "swim" was scored each time a mouse swam from one mark to the other. The mice were observed through overhead mirrors and the number of 180 degree swims was recorded for each mouse. […]

[2] = molecular target: T1, dopamine (DA) D-2 receptor (Rattus norvegicus, UniProt P61169); assay: TEST A: [3H]-spiperone binding, dopamine (DA) D-2 receptor, rat striatal membranes; settings: 0.5 nM [3H] spiperone, 40 nM ketanserin, pH 7.7, 37° C., 15 min, typical values, read-out: IC50 (drug concentration which produced a 50% displacement) for the displacement of [3H] spiperone
T1 construct: Specifically, rat striatal membranes were used; from tissue; host or cells: rat striatum (membranes)
Excerpt: as §1
The receptor binding assay used to measure affinities of various compounds for the dopamine (DA) D-2 receptor subtype was that described by Saller and Salama in J Pharmacol Exp Ther 236, page 714, 1986.
Specifically, rat striatal membranes were used. Tissue membranes were prepared and washed once in 50 volumes of the appropriate Tris HCl buffer. For the D-2 receptor binding assay, striatal membranes were suspended to a final concentration of 8 mg/ml in 50 mM Tris HCl with 40 nM ketanserin, pH 7.7. Nonspecific binding to D-2 receptors was measured in the presence of 1.0 μM (+)-butaclamol. IC50 s (drug concentration which produced a 50% displacement) for the displacement of 0.5 nM [^3 H] spiperone were determined using at least five concentrations of each drug in triplicate. One-half milliliter of membrane suspension was incubated with the compound of interest or vehicle or nonspecific drug, ligand and appropriate Tris HCl buffer. […] The amount of drug bound to the membranes was assessed using liquid scintillation counting techniques. […]

T1 sequence (P61169 whole entry): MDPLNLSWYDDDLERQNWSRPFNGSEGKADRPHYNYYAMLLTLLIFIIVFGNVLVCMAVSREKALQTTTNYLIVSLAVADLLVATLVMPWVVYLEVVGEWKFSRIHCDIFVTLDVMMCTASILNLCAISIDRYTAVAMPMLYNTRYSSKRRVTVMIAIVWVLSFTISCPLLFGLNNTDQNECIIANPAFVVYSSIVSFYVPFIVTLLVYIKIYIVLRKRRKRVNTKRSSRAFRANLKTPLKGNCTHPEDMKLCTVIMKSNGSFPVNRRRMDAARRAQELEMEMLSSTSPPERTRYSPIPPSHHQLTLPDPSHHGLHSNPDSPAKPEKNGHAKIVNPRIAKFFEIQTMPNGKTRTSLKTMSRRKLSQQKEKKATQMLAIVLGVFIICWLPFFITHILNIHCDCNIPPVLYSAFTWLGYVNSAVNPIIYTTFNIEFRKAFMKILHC

Row | pIC50 [2] | SMILES | minimal effective dose [1]
1 | 8.05 | CCOCC(=O)NC1CCN(C[C@@]23C[C@@H](c4ccccc42)c2ccc(Cl)cc23)CC1 [Example 1, N-(1-[(9S,10S)-(+)-2-Chloro-9,10-dihydro-9,10-methanoanthracen-9-ylmethyl]-4-piperidyl)-2-ethoxyacetamide] | 2.5 mg/kg
2 | 6.84 | CCC(=O)NC1CCN(CC23CC(c4ccccc42)c2ccc(Cl)cc23)CC1 (stereo not shown) [Example 24, N-(1-[2-Chloro-9,10-dihydro-9,10-methanoanthracen-9-ylmethyl]-4-piperidyl)propionamide] | 40 mg/kg
